Columns and labels:
[1] = system: salivary bacteria biofilm; experiment: In vitro biofilm assay (salivary bacteria on saliva-treated hydroxyapatite discs); format: cell-based
Experimental: Biofilms were prepared and tested by a modified method from Guggenheim (Guggenheim B., Gierstein E., Schupbach P, Shapiro S., 2001. “Validation of an in vitro biofilm model of supragingival plaque” Journal Dental Research 80:363-370), which is herein incorporated by reference. Briefly, biofilms were grown by incubating salivary bacteria with saliva-treated hydroxyapatite (HA) discs in sterile 24 well cell culture plates. Using media supplemented with saliva (25% total volume), and transferring discs frequently during the growth phase, encouraged growth of a dental plaque-like biofilm. This was developed for up to 72 hours. The biofilm was exposed to the test compositions (set forth in Table 1) three times a day, for five minutes, on days two and three of the experiment. Biofilm was quantified turbidometrically and by spectrophometric absorption at 600 nm.
The number of CFU for each biofilm was determined as follows. After vigorous shaking, 0.1 ml of the liquid from each biofilm cell was pipetted into 10 ml reverse osmosis (RO) H2O (100× dilution). The 100× dilution was shaken, and 0.1 ml was pipetted into 10 ml RO H2O (10,000× dilution). […] After the growth period, the number of colonies of bacteria growing on each plate were counted. […]
The IC40 of MBE was determined, and was used as a positive control concentration.

salivary bacteria = experiment: Inhibition of biofilm formation on saliva-precoated pegs (Calgary device), MBIC/FBIC; format: cell-based
Experimental: 80 ml of saliva was collected from 4 donors and centrifuged at 3800 rpm to remove food debris. 15 ml supernatant was removed and mixed with an equal volume of 1×PBS. The mixture was then filter sterilized to collect saliva proteins that were used to precoat suspended pegs in the lid of the Calgary device for 3 hours. Meanwhile, the remaining saliva was centrifuged at 10,000 rpm to collect bacteria for biofilm inoculum. After centrifugation, the pellet was resuspended to an OD600 of 0.05 and premixed with defined concentrations of LAE-CF (99% purity, from Vedeqsa), MBE and a combination of the two actives at predetermined ratios. The actives and inoculum were added to the saliva precoated pegs and incubated overnight for at least 16 hours to allow for biofilm formation. Controls included growth (no actives) and media only (no bacteria).
The efficacy of the LAE and MBE synergistic effects are shown in the minimal biofilm inhibitory concentrations (MBIC) and fractional biofilm inhibitory concentration (FBIC) for the two actives. The FBIC was calculated according to the following formula: FBIC=[QA/Qa+QB/Qb] where
QA=the MBIC of component A combined with component B.
Qa=the MBIC of component A alone.
QB=the MBIC of component B combined with component A.
Qb=the MBIC of component B alone. […]

In the case of CCCCCCCCCCCC(=O)N[C@@H](CCCNC(=N)N)C(=O)OCC [LAE, L-arginine, N^α-lauroyl ethyl ester], the inhibition at 1000 ppm ([1]; 5 min, 1000 ppm, biofilm exposed 5 min three times a day on days 2 and 3) is reported as 82%, the “percent inhibition compared to the positive control” value ([1]; positive control = MBE at IC40) is reported as “not better than the positive control” and the “FBIC (fractional biofilm inhibitory concentration)” value (salivary bacteria; FBIC=QA/Qa+QB/Qb, <1 synergistic) is reported as 1. The “MBIC (minimal biofilm inhibitory concentration)” value (salivary bacteria; active alone, overnight at least 16 hours) was 125 ppm.

Reference: patent US10265367B2, “Synergistic antibacterial effects of magnolia bark extract and L-arginine, N-α-lauroyl ethyl ester on plaque biofilm” (WM. WRIGLEY JR. COMPANY, priority 2015, dated 2019)
